We go through one compound from article PMC6669608, “Evaluation of Oxasqualenoids from the Red Alga Laurencia viridis against Acanthamoeba” (Marine Drugs, 2019).

Molecules are shown by their SMILES.

Data set [1] has as its system Acanthamoeba castellanii Neff trophozoites. The data set can be described thus: In vitro activity against Acanthamoeba trophozoites (alamarBlue colorimetric assay). It is filed as cell-based, Acanthamoeba castellanii Neff (ATCC 30010). The note with it: 42.5 µM (25 µg/mL).
Data set [2] deals with Acanthamoeba polyphaga trophozoites. The data set can be described thus: In vitro activity against trophozoites of clinical strain A. polyphaga. The note with it: trophozoite stage. It is filed as cell-based, Acanthamoeba polyphaga genotype T4 ATCC 30461. Here is the method:
Subsequently, DT was tested against two clinical isolates, A. griffini, genotype T3 obtained in a previous study and A. polyphaga genotype T4 ATCC 30461. Those strains were grown axenically in the same medium as A. castellanii Neff.
(§1) The in vitro activities of the different compounds of Laurencia were evaluated using a previously developed colorimetric assay based on the alamarBlue™ Cell Viability Reagent assay (Life Technologies, Barcelona, Spain). Briefly, 50 µL of 5 × 10⁴ trophozoites/mL were seeded onto a 96-well microtiter plate. After 15 min, the adherence of the cells to the plate bottom was confirmed by the use of the inverted microscope Leica DMIL (Leica, Wetzlar, Germany). Furthermore, 50 µL of serial dilutions of each compound was added to the 96-well microtiter plate. Finally, alamarBlue™ was placed into each well at 10% of the final volume and incubated at 26 °C with slight agitation. After 96 h, the fluorescence was measured with EnSpire Multimode Plate Reader (Perkin Elmer, Madrid, Spain) at a wavelength of 570/585 nm. The inhibitory concentration to inhibit the growth of 50% of the parasites (IC50) was calculated through nonlinear regression analysis with 95% confidence limits using the software Sigma Plot 12.0 (Systat Software Inc., London, UK). The experiments were performed three times each, allowing for standard deviation.

The test system of the next data set is A. castellanii Neff. The data set can be described thus: Intracellular ROS production (CellROX Deep Red). The format is cell-based, Acanthamoeba castellanii Neff. Conditions: IC90, 24 h. Here is the method: Generation of intracellular ROS was detected using the CellROX® Deep Red fluorescent probe (Invitrogen, Thermo Fisher Scientific Inc., Waltham, MA, USA). The cells were treated with IC90 of DT for 24 h and exposed to CellROX® Deep Red (5 μM, 30 min) at 26 °C in the dark.

Another data set has as its system A. castellanii. The data set can be described thus: Measurement of ATP levels (CellTiter-Glo). The note with it: IC90, 24 h. The format is cell-based, Acanthamoeba castellanii. The method, then: The ATP level was measured using a Cell Titer-Glo® Luminescent Cell Viability Assay (Promega, Alcobendas, Madrid). This required adding a single reagent (CellTiter-Glo® Reagent, Promega, Alcobendas, Madrid), which relies on the properties of a proprietary thermostable luciferase, generating a stable proportional luminescent signal to the amount of ATP present, which is directly proportional to the number of cells present in culture. After incubation, treated amoebas were mixed with the kit reagent into a white-wall 96-well microtiter plate (Nunc; Thermo Fisher Scientific Inc., Waltham, MA, USA) following the manufacturer’s instructions for measurement of the luminescence on a PerkinElmer spectrophotometer. The effect of the drug on the ATP production was evaluated by incubating 10^5 cells/mL with the previously calculated IC90 of DT following the manufacturer´s recommendations. As a negative control, an A. castellanii culture incubated with PYG medium was used.

Data set [3] in a line: Cytotoxicity assay (alamarBlue). The format is cell-based, murine. Conditions: mouse; 24 h, 37 °C; read-out: CC50, toxicity against murine macrophage J774.A1. The method, then:
(§2) The antiamoeboid activity of the compounds was evaluated against Acanthamoeba castellanii Neff (ATCC 30010) type strain from the American Type Culture Collection. This strain was axenically incubated in PYG medium (0.75% (w/v) proteose Peptone, 0.75% (w/v) Yeast extract, and 1.5% (w/v) Glucose) supplemented with 10 µg/mL gentamicin (Sigma-Aldrich, Madrid, Spain). As for the cytotoxicity assays, murine macrophages J774A.1 (ATCC TIB-67) were used, cultivated in DMEM medium (Dulbecco’s modified eagle medium, Gibco Life Technologies, California, USA) with 10% supplement of fetal bovine serum (FBS) and 10 µg/mL gentamicin at 37 °C in a 5% CO2 incubator.
The cytotoxicity of the tested compounds was determined in vitro with murine macrophages (J774A.1). For this assay, the DMEM culture medium was changed from RPMI without phenol red (Roswell Park Memorial Institute, Thermo Fisher Scientific Inc., Waltham, MA, USA) to L-Glutamine supplemented with 10% (v/v) inactivated FBS and with 10 µg/mL gentamicin. In this assay, the macrophages were counted and seeded into a 96-well microtiter plate, adding 50 µL to each well from a stock solution of 2 × 10^5 cells/mL. Cells were then left to adhere for 15 min to the plate bottom and were checked with the inverted microscope Leica DMIL. After that, 50 µL of a serial dilution of the compounds was added to the 96-well microtiter plate. Finally, alamarBlue™ was added into each well at an amount equal to 10% of the final volume and incubated at 37 °C in the presence of CO2 at 5% for 24 h. After this period of time, as in the in vitro anti-Acanthamoeba assay, the fluorescence was determined with an EnSpire Multimode Plate Reader (PerkinElmer, Inc, Waltham, MA, USA) at a wavelength of 570/585 nm. The cytotoxicity concentration to inhibit the growth of 50% of murine macrophages (CC50) was calculated through nonlinear regression analysis with 95% confidence limits using the software Sigma Plot 12.0 (Systat Software, Inc, San Jose, CA 95110 USA). Experiments were performed three times each, allowing for standard deviation.
(In general: Resazurin is reduced to fluorescent resorufin, in cell work by metabolically active cells.)

The test system of data set [4] is Acanthamoeba castellanii Neff trophozoites. The data set can be described thus: In vitro activity against Acanthamoeba trophozoites (alamarBlue colorimetric assay). It is filed as cell-based, Acanthamoeba castellanii Neff (ATCC 30010). The note with it: trophozoites, 96 h, 26 °C, read-out: IC50 against Acanthamoeba castellanii Neff. The method, then: as §2, §1
In data set [5] the test system is Acanthamoeba castellanii Neff cysts. The experiment in a line: In vitro activity against Acanthamoeba castellanii Neff cysts (alamarBlue). It is filed as cell-based. The note with it: 168 h, mature cysts, 7 d incubation, read-out: IC50, cysticidal activity against A. castellanii Neff. The method, then:
The cysticidal activity of DT was determined by the alamarBlue™ assay and confirmed visually by inverted microscopy. Cysts of A. castellanii Neff were prepared as previously described. Briefly, trophozoites were transferred from PYG medium based cultures (trophozoite medium) to Neff’s encystment medium (NEM; 0.1 M KCl, 8 mM MgSO4·7H2O, 0.4 mM CaCl2·2H2O, 1 mM NaHCO3, 20 mM ammediol (2-amino-2-methyl-1,3-propanediol; Sigma Aldrich, Madrid, Spain), pH 8.8 at 25 °C) and were cultured in this medium with gentle shaking for a week in order to obtain mature cysts. After that, mature cysts were harvested and washed twice using PYG medium.
A serial dilution of the tested molecules was made in PYG. The in vitro susceptibility assay was performed in sterile 96-well microtiter plates (Corning™). To these wells, containing 50 µL of drug dilutions, 5 × 10^4 mature cysts of Acanthamoeba/mL were added. After 7 d of incubation with the drugs, the plate was centrifuged at 3000 rpm for 10 min. The supernatant was removed and replaced with 100 µL of fresh PYG medium in each well. Finally, 10 μL of the Alamar Blue Assay Reagent (Biosource, Europe, Nivelles, Belgium) was placed into each well, and the plates were then incubated for 144 h at 28 °C. The emitted fluorescence was periodically examined with an Enspire microplate reader (PerkinElmer, Waltham, MA, USA) at 570/585 nm.

As usually defined, the IC50 is the concentration needed to halve the response being measured. The CC50 is the concentration at which the toxic effect on the cells reaches its halfway point. With `C=C(CC[C@H](O)[C@@]1(C)CC[C@H](C(C)(C)O)O1)[C@H]1CC[C@H]2O[C@@H]([C@]3(C)CC[C@@H](Br)C(C)(C)O3)CC[C@]2(C)O1` [Compound 1, dehydrothyrsiferol], in data set [1], the “inhibitory effect on the growth of A. castellanii trophozoites (microscopy)” value is given as “many of the treated cells were dead”. The IC50 in data set [2] stood at 73.4 ± 4.02 µM; in data set [4], 12.8 ± 1.38 µM; in data set [5] it was 39.27 ± 0.14 µM. In addition, in the data set with A. castellanii Neff, the “reactive oxygen species (ROS) levels” value is given as “increased levels of ROS”. Besides, the “ATP level maintained after treatment” value with A. castellanii came to 19.52%. Besides, the “decrease in the total ATP level in comparison to the negative control” value with A. castellanii was 80.48%. In addition, the CC50 in data set [3] came to 28.8 ± 3.1 µM.
